The values below come from BindingDB's records for doi:10.1016/S0960-894X(97)10014-2 (1997).

Assay [1] can be described thus: Inhibition of ADP induced platelet aggregation in human platelet-rich plasma (PRP).
A short description of assay [2]: Inhibition of ADP induced platelet aggregation in human platelet-rich plasma (PRP).

The compound `COc1ccc(C(CC(=O)O)N2CCc3cc(OCc4ccc(C(=N)N)cc4)ccc3C2=O)cc1` (stereo not drawn) [3-[6-(4-Carbamimidoyl-benzyloxy)-1-oxo-3,4-dihydro-1H-isoquinolin-2-yl]-3-(4-methoxy-phenyl)-propionic acid] showed an IC50 in assay [1] of 260 nM.
In assay [1], `N=C(N)c1ccc(COc2ccc3c(c2)CCN(C(CC(=O)O)c2ccccc2)C3=O)cc1` (stereo not drawn) [3-[6-(4-Carbamimidoyl-benzyloxy)-1-oxo-3,4-dihydro-1H-isoquinolin-2-yl]-3-phenyl-propionic acid] showed a concentration for half-maximal inhibition (IC50) of 200 nM.
`COCCOCC(CC(=O)O)N1CCc2cc(OCc3ccc(C(=N)N)cc3)ccc2C1=O` (stereo not drawn) [3-[6-(4-Carbamimidoyl-benzyloxy)-1-oxo-3,4-dihydro-1H-isoquinolin-2-yl]-4-(2-methoxy-ethoxy)-butyric acid] came in with an IC50 in assay [1] of 680 nM.
In assay [1], `CCOCCCC(CC(=O)O)N1CCc2cc(OCc3ccc(C(=N)N)cc3)ccc2C1=O` (stereo not drawn) [3-[6-(4-Carbamimidoyl-benzyloxy)-1-oxo-3,4-dihydro-1H-isoquinolin-2-yl]-6-ethoxy-hexanoic acid] displayed an IC50 of 470 nM.
`COCCCC(CC(=O)O)N1CCc2cc(OCc3ccc(C(=N)N)cc3)ccc2C1=O` (stereo not drawn) [3-[6-(4-Carbamimidoyl-benzyloxy)-1-oxo-3,4-dihydro-1H-isoquinolin-2-yl]-6-methoxy-hexanoic acid] came in with a concentration for half-maximal inhibition (IC50) in assay [1] of 600 nM.
In assay [1], `CCCCC(CC(=O)O)N1CCc2cc(OCc3ccc(C(=N)N)cc3)ccc2C1=O` (stereo not drawn) [3-[6-(4-Carbamimidoyl-benzyloxy)-1-oxo-3,4-dihydro-1H-isoquinolin-2-yl]-heptanoic acid] had an IC50 of 600 nM.
In assay [1], `CCCC(CC(=O)O)N1CCc2cc(OCc3ccc(C(=N)N)cc3)ccc2C1=O` (stereo not drawn) [3-[6-(4-Carbamimidoyl-benzyloxy)-1-oxo-3,4-dihydro-1H-isoquinolin-2-yl]-hexanoic acid] displayed an IC50 of 230 nM.
For the compound `CCCCCCC(CC(=O)O)N1CCc2cc(OCc3ccc(C(=N)N)cc3)ccc2C1=O` (stereo not drawn) [3-[6-(4-Carbamimidoyl-benzyloxy)-1-oxo-3,4-dihydro-1H-isoquinolin-2-yl]-nonanoic acid], the midpoint of inhibition in assay [1], the IC50, lay at 3000 nM. This IC50 lies about 13-fold higher than the previous one.
Still for that read-out and setting: as for `CCCCCC(CC(=O)O)N1CCc2cc(OCc3ccc(C(=N)N)cc3)ccc2C1=O` (stereo not drawn) [3-[6-(4-Carbamimidoyl-benzyloxy)-1-oxo-3,4-dihydro-1H-isoquinolin-2-yl]-octanoic acid], the figure is 570 nM.
Same read-out and setting: as for `CCC(CC(=O)O)N1CCc2cc(OCc3ccc(C(=N)N)cc3)ccc2C1=O` (stereo not drawn) [3-[6-(4-Carbamimidoyl-benzyloxy)-1-oxo-3,4-dihydro-1H-isoquinolin-2-yl]-pentanoic acid], the figure is 300 nM.
Compound `N=C(N)c1ccc(COc2ccc3c(c2)CCN(CCC(=O)O)C3=O)cc1` [3-[6-(4-Carbamimidoyl-benzyloxy)-1-oxo-3,4-dihydro-1H-isoquinolin-2-yl]-propionic acid] came in with an IC50 in assay [2] of 420 nM.
In assay [1], `COC(=O)c1ccc(C(CC(=O)O)N2CCc3cc(OCc4ccc(C(=N)N)cc4)ccc3C2=O)cc1` (stereo not drawn) [4-{1-[6-(4-Carbamimidoyl-benzyloxy)-1-oxo-3,4-dihydro-1H-isoquinolin-2-yl]-2-carboxy-ethyl}-benzoic acid methyl ester] came in with an IC50 of 220 nM. In other words, the sub-micromolar range.
Regarding `N=C(N)c1ccc(COc2ccc3c(c2)CCN(CC(=O)O)C3=O)cc1` [[6-(4-Carbamimidoyl-benzyloxy)-1-oxo-3,4-dihydro-1H-isoquinolin-2-yl]-acetic acid], 30000 nM corresponded to half-maximal inhibition in assay [1] (IC50).
